Measured values reported in patent US10131691B2, “Compositions and methods for specific regulation of pyruvate dehydrogenase kinase” (THE BOARD OF TRUSTEES OF THE LELAND STANFORD JUNIOR …, priority 2011, dated 2018).
No end group written: not given here.

Tests used:
hearts subjected to I/R = test: Ex vivo cardiac protection from ischemia/reperfusion (Langendorff; infarct size, CPK release); parameters: species or system rat; details: for CPK (u/L) / protection from I/R injury: ex vivo I/R; for CPK (u/L): release into perfusate, 1 μM peptide; for protection from I/R injury: n=6; for cardioprotection / biological activity in ex vivo I/R model (in words): CPK release and JNK phosphorylation as markers
Procedure: An ex vivo model of acute ischemic heart damage was used, which involves a 30 min equilibration period, followed by 30 min of global ischemia, which in turn is followed by 60 min of reperfusion. The hearts were perfused with 1 μM TAT or TAT-conjugated peptide. Normoxic control hearts were subjected to 90 min perfusion in the absence of ischemia. Coronary effluent was collected to determine creatine phosphokinase (CPK) release during the first 30 min of the reperfusion period. At the end of the reperfusion period, hearts were sliced into 1-mm-thick transverse sections and incubated in triphenyltetrazolium chloride solution (TTC, 1% in phosphate buffer, pH 7.4) at 37° C. for 15 min. Infarct size was expressed as a percentage of the risk zone (equivalent to total LV muscle mass) (methods described in Brandman et al., 2007, J. Biol. Chem., 282:4113-4123; Inagaki et al., 2003, Circulation, 108:869-875). […]
(§1) First, I/R-induced infarct size after treatment with ΨPDK or δV1-1 (Inagaki et al., 2003, Circulation, 108:869-875), was smaller than that in hearts treated with the control peptide or with ΨδRACK, the δPKC-specific activator or with δV1-5 (FIG. 6A). Second, similar data were obtained when determining the levels of released creatine phosphokinase (CPK), as a marker of myocardial infarction; CPK levels in the ΨPDK- or δV1-1-treated hearts were similar and were lower than those after treatment with control peptide, ΨδRACK or δV1-5 (FIG. 6B).
(§2) To begin determining the contribution of each of the amino acids on the effect of the peptide, Alanine scanning was used (Brunel et al., 2006, J. Virol., 80:1680-1687; Chen et al., J. Pep. Res., 2000, 56:147-156; Brems et al., 1992, Prot. Eng., 5:527-533) (substituting individual amino acid with an alanine). The resultant ΨPDK peptide analogs were then used in the same model of myocardial infarction, using CPK release and JNK phosphorylation as markers for cardiac injury. CPI release into the perfusates and pJNK in the hearts were determined after I/R in the presence of respective peptides and compared to the levels in hearts subjected to I/R in the presence of the control peptide. None of the peptides having a substitution had any significant biological activity (Table 1).

JNK = JNK phosphorylation in hearts subjected to I/R (Western blot); parameters: species or system rat; details: ex vivo I/R hearts, 1 μM peptide
Procedure: An ex vivo model of acute ischemic heart damage was used, which involves a 30 min equilibration period, followed by 30 min of global ischemia, which in turn is followed by 60 min of reperfusion. The hearts were perfused with 1 μM TAT or TAT-conjugated peptide. Normoxic control hearts were subjected to 90 min perfusion in the absence of ischemia. Coronary effluent was collected to determine creatine phosphokinase (CPK) release during the first 30 min of the reperfusion period. At the end of the reperfusion period, hearts were sliced into 1-mm-thick transverse sections and incubated in triphenyltetrazolium chloride solution (TTC, 1% in phosphate buffer, pH 7.4) at 37° C. for 15 min. Infarct size was expressed as a percentage of the risk zone (equivalent to total LV muscle mass) (methods described in Brandman et al., 2007, J. Biol. Chem., 282:4113-4123; Inagaki et al., 2003, Circulation, 108:869-875).
Rat hearts were homogenized in a buffer containing 210 mM mannitol, 70 mM sucrose, 5 mM MOPS and 1 mM EDTA followed by isolation of the mitochondria fraction (described in Churchill et al., 2008, J. Mol. Cell. Cardiol., 46:278-284) and identified by the presence of VDAC (MitoSciences, Eugene, Oreg., USA). The level of phosphorylated and unphosphorylated JNK1/2 was analyzed in the total fraction using respective specific antibodies (Cell Signaling, Danvers, Mass. and Santa Cruz Biotechnology, CA, USA).
as §1, §2

δPKC = target: T1, δPKC (Mus musculus, UniProt P28867); test: MARCKS phosphorylation in wild-type fibroblasts (Western blot); type: cell-based; details: 20% serum, peptides conjugated to TAT47-57, relative to control peptide
T1 construct: endogenous in cells; host or cells: primary fibroblasts from wild-type mice
T1 sequence (P28867 whole entry): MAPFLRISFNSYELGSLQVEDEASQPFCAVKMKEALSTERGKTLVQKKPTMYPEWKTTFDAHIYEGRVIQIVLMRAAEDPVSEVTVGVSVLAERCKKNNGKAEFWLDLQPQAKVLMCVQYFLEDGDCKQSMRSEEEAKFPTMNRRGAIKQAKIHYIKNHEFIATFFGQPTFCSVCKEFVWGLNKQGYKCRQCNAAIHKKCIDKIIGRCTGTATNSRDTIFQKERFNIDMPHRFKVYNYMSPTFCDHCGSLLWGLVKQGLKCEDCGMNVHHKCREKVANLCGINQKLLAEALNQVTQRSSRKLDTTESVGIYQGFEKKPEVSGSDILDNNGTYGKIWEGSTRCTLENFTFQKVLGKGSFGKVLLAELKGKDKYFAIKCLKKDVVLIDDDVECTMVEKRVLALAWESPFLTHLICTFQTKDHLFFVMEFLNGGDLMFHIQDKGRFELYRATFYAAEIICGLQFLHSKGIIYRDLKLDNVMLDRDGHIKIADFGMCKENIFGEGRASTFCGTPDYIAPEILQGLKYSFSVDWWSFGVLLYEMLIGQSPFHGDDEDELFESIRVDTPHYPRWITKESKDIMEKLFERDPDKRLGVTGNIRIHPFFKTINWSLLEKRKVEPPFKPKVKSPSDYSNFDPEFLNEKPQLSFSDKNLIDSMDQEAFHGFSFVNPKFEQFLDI
Description: (§3) Fibroblasts were isolated from wild-type or δPKC knockout mice (provided by Dr. Robert Messing, Gallo Center, UCSF) as previously described (Disatnik et al., 2004, J. Cell Sci., 117:4469-4479) and maintained in 20% fetal bovine serum.
(§4) Phosphorylation of myristoylated alanine-rich C kinase substrate (MARCKS), a ubiquitous PKC substrate, was monitored by Western blot of total cell lysates, using anti-phosphorylated MARCKS (Cell Signaling, Danvers, Mass.). Anti-MARCKS and anti-δPKC antibodies were obtained from Santa Cruz Biotechnology (Santa Cruz Biotechnology, CA, USA).
(§5) The ΨPDK sequence is found both in PDK and in the PDK-cognate protein, δPKC. It was therefore predicted that ΨPDK mimics inhibitory intra-molecular interaction, and, similar to ΨδRACK, ΨPDK should compete with the inhibitory interaction of PDK and δPKC, and increase δPKC-mediated functions (FIG. 1A). Phosphorylation of myristoylated alanine-rich C-kinase substrate (MARCKS) was used as a marker of PKC activity (Disatnik et al., 2004, J. Cell. Sci., 117:4469-4479). […] To determine the selectivity of the peptides for δPKC, fibroblasts derived from δPKC knock-out mice were also used.

[1] = tested on: fibroblasts derived from δPKC knock-out mice; test: MARCKS phosphorylation in fibroblasts from δPKC knock-out mice; type: cell-based, mouse; details: fibroblasts lacking δPKC
Description: as §3, §4, §5

Compound	CPK (u/L) (hearts subjected to I/R)	p-JNK/total JNK (JNK)	also measured
ALSTAR [p195]	913 ± 199 u/L	0.7 ± 0.10	–
YGRKKRRQRRRGSGALSTER [TAT-GSG-ΨPDK]	–	–	protection from I/R injury (hearts subjected to I/R): 73%
ALST(p)ER [p197]	803 ± 131 u/L	0.7 ± 0.10	cardioprotection / biological activity in ex vivo I/R model (in words) (hearts subjected to I/R): None of the phosphorylated peptides (p197, 198, 199) affected cardioprotection
ALSTEA [p196]	926 ± 265 u/L	0.9 ± 0.10	–
ALSAER [p194]	886 ± 211 u/L	0.6 ± 0.10	–
ALS(p)TER [p198]	1169 ± 293 u/L	0.9 ± 0.10	cardioprotection / biological activity in ex vivo I/R model (in words) (hearts subjected to I/R): None of the phosphorylated peptides (p197, 198, 199) affected cardioprotection
GKTLVQ (not fully specified (C-terminus); also: TAT47-57 conjugated via disulfide to C-terminal Cys) [δV1-5, reference compound]	–	–	MARCKS phosphorylation (δPKC): increased MARCKS phosphorylation; MARCKS phosphorylation [1]: increased MARCKS phosphorylation
ALATER [p193]	1155 ± 299 u/L	0.7 ± 0.03	–
AASTER [p192]	1272 ± 172 u/L	0.7 ± 0.10	–
CCCCCCCCCCCCCC(=O)O[C@@H]1[C@@H](C)[C@@]2(O)[C@@H](C=C(CO)C[C@]3(O)C(=O)C(C)=C[C@@H]23)[C@@H]2C(C)(C)[C@]12OC(C)=O [PMA, Phorbol 12-myristate 13-acetate, reference compound]	–	–	MARCKS phosphorylation (δPKC): caused increased MARCKS phosphorylation
ΨPDK-Cs-sC-TAT: SEQ ID NO. 2 linked to SEQ ID NO. 33 (TAT) via a disulfide bond (chain 1 ALSTER; chain 2 YGRKKRRQRRR; not fully specified; disulfide bond linkage)	–	–	protection from I/R injury (hearts subjected to I/R): 45%
ALS(p)T(p)ER [p199]	842 ± 258 u/L	0.6 ± 0.02	cardioprotection / biological activity in ex vivo I/R model (in words) (hearts subjected to I/R): None of the phosphorylated peptides (p197, 198, 199) affected cardioprotection
